Results as given in patent EP0342003B1, “Use of 15-ketoprostaglandin E or F compounds for uterine contraction” (Kabushiki Kaisha Ueno Seiyaku Oyo Kenkyujo, priority 1988, dated 1989).

Experiments:
ileum = experiment: Intestinal contraction of an isolated ileum section in a Magnus tube (reference example); format: cell-based, Wistar rat; details: result in words
Experimental: Test Example 3 (Intestinal contraction ... Reference example)
A section was cut off from ileum of a Wistar rat (male) and hung in a Magnus tube. The section was contracted several times by administering acetylcholine (1x10⁻⁶ g/ml) and received test compounds after giving two or more contractions of the same intensity. Contractions obtained by the test compounds were expressed as a ratio to the contraction by acetylcholine (1x10⁻⁶ g/ml) which was taken as 100%, and EC₅₀ values were calculated as a concentrations for 50% contraction.

uterus = experiment: Uterine contraction of an isolated uterus section in a Magnus tube; format: cell-based; details: Rattus norvegicus, ratio to contraction by oxytocin (1mU) taken as 100%; for activation at 1 µM: Dose 1x10^-6 M; for activation at 0.3 µM: Dose 3x10⁻⁷ M
Experimental: Test Example 1 (Uterine contraction)
An estrous rat (female, 150g) was used as test animals. The rat was sacrificed by bleeding and uterus was extirpated. A section of about 2.0cm was cut off and hung in a Magnus tube containing Tyrode solution or Beauvillain solution.
The section of uterus was held for about 5 minutes until it because stable and then contracted several times by administering oxytocin (1mU). After stable contraction was obtained, the section received test compounds. Contractions obtained by the test compounds were expressed as a ratio to the contraction by oxytocin which was taken as 100%. The results are shown in Table 1 (15-keto-PGE derivatives) and Table 2 (15-keto-PGF derivatives).

Question: `CCCCCC(=O)CC[C@@H]1[C@@H](C/C=C\CCCC(=O)OC)[C@@H](O)C[C@H]1O` [13,14-dihydro-15-keto-PGF2α methyl ester] was tested. Which intestinal contraction (ileum) did it give?
Answer: without intestinal contraction

Question: With `CCCCC(F)C(=O)CC[C@H]1[C@H](O)CC(=O)[C@@H]1CC(=O)CCCCC(=O)OCC` (stereo partly shown) [X-1, 13,14-dihydro-6,15-diketo-16R,S-fluoro-PGE1 ethyl ester] as the compound, how does the activation at 100 µM (uterus; Table 1, Dose 1x10^-4 M) read?
Answer: 86%

Question: With `CCCCC(F)C(=O)CC[C@H]1[C@H](C)CC(=O)[C@@H]1CC(=O)CCCCC(=O)OCC` (stereo partly drawn) [X-2, 13,14-dihydro-6,15-diketo-16R,S-fluoro-11-dehydroxy-11R-methyl-PGE1 ethyl ester] as the compound, how does the activation at 10 µM (uterus; Table 1, Dose 1x10^-5 M) read?
Answer: 82%

Question: For `CCCCC(O)C(=O)CC[C@H]1[C@H](O)CC(=O)[C@@H]1C/C=C\CCCC(=O)OCC` (stereo partly shown) [X-3, 13,14-dihydro-15-keto-16R,S-hydroxy-PGE2 ethyl ester], which activation at 100 µM (uterus; Table 1, Dose 1x10^-4 M) is on record?
Answer: 50%

Question: With `CCCCC(F)C(=O)CC[C@H]1[C@H](O)CC(=O)[C@@H]1C/C=C\CCCC(=O)O` (stereo partly shown) [X-4, 13,14-dihydro-15-keto-16R,S-fluoro-PGE2] as the compound, how does the activation at 1 µM (uterus; Table 1) read?
Answer: 87%

Question: Which activation at 3 µM (uterus; Table 1, Dose 3x10^-6 M) does the source give for `CCCCC(F)C(=O)CC[C@H]1[C@H](O)CC(=O)[C@@H]1C/C=C\CCCC(=O)OC` (stereo partly shown) [X-5, 13,14-dihydro-15-keto-16R,S-fluoro-PGE2 methyl ester] here?
Answer: 64%

Question: Which activation at 10 µM (uterus; Table 1, Dose 1x10^-5 M) does the source give for `CCCCC(F)C(=O)CC[C@H]1[C@H](O)CC(=O)[C@@H]1C/C=C\CCCC(=O)OCC` (stereo partly shown) [X-6, 13,14-dihydro-15-keto-16R,S-fluoro-PGE2 ethyl ester] here?
Answer: 89%

Question: How did the activation at 100 µM (uterus; Table 1, Dose 1x10^-4 M) turn out when `CCCCC(F)C(=O)CC[C@H]1[C@H](C)CC(=O)[C@@H]1C/C=C\CCCC(=O)OCC` (stereo partly drawn) [X-7, 13,14-dihydro-15-keto-16R,S-fluoro-11-dehydroxy-11R-methyl-PGE2 ethyl ester] was run?
Answer: 50%

Question: With `COCCCCC(C)(C)C(=O)CC[C@H]1[C@H](O)CC(=O)[C@@H]1C/C=C\CCCC(=O)OC` [X-8] as the compound, how does the activation at 10 µM (uterus; Table 1, Dose 1x10^-5 M) read?
Answer: 64%

Question: Which activation at 10 µM (uterus; Table 1, Dose 1x10^-5 M) does the source give for `CCCCC(F)C(=O)/C=C/[C@H]1[C@H](O)CC(=O)[C@@H]1C/C=C\CCCC(=O)OC` (stereo partly shown) [X-9] here?
Answer: 84%

Question: With `CCCCCC(F)C(=O)CC[C@H]1[C@H](O)CC(=O)[C@@H]1C/C=C\CCCC(=O)OC` (stereo partly shown) [X-10] as the compound, how does the activation at 10 µM (uterus; Table 1, Dose 1x10^-5 M) read?
Answer: 80%

Question: `CCCCC(F)C(=O)/C=C/[C@H]1[C@H](O)CC(=O)[C@@H]1C/C=C\CCCC(=O)O` (stereo partly shown) [X-11] was tested. Which activation at 1 µM (uterus; Table 1) did it give?
Answer: 80%

Question: For `CCCCC(F)C(=O)CC[C@H]1[C@H](O)CC(=O)[C@@H]1CCCCCCC(=O)O` (stereo partly shown) [X-12], which activation at 1 µM (uterus; Table 1) is on record?
Answer: 34%

Question: For `CCCCC(F)(F)C(=O)CC[C@H]1[C@H](O)CC(=O)[C@@H]1C/C=C\CCCC(=O)OC` [X-13], which activation at 1 µM (uterus; Table 1) is on record?
Answer: 63%

Question: `CCCCC(F)(F)C(=O)CC[C@H]1[C@H](O)CC(=O)[C@@H]1C/C=C\CCCC(=O)O` [X-14] was tested. Which activation at 1 µM (uterus; Table 1) did it give?
Answer: 81%

Question: For `O=C(O)CCC/C=C\C[C@H]1C(=O)C[C@@H](O)[C@@H]1CCC(=O)COc1cccc(C(F)(F)F)c1` [X-15], which activation at 1 µM (uterus; Table 1) is on record?
Answer: 32%

Question: `CCCCC(F)C(=O)CC[C@@H]1[C@@H](C/C=C\CCCC(=O)O)[C@@H](O)C[C@H]1O` (stereo partly drawn) [Y-1, 13,14-dihydro-15-keto-16R,S-fluoro-PGF2α] was tested. Which activation at 0.3 µM (uterus; Table 2) did it give?
Answer: 89%

Question: For `CCCCC(F)C(=O)CC[C@@H]1[C@@H](C/C=C\CCCC(=O)OC)[C@@H](O)C[C@H]1O` (stereo partly drawn) [Y-2, 13,14-dihydro-15-keto-16R,S-fluoro-PGF2α methyl ester], which activation at 3 µM (uterus; Table 2, Dose 3x10⁻⁶ M) is on record?
Answer: 70%

Question: With `CCCCC(F)(F)C(=O)CC[C@@H]1[C@@H](C/C=C\CCCC(=O)OC)[C@@H](O)C[C@H]1O` [Y-3, 13,14-dihydro-15-keto-16,16-difluoro-PGF2α methyl ester] as the compound, how does the activation at 3 µM (uterus; Table 2, Dose 3x10⁻⁶ M) read?
Answer: 82%

Question: `CCCCC(F)C(=O)CC[C@@H]1[C@@H](C/C=C\CCCC(=O)OCC)[C@@H](O)C[C@H]1C` (stereo partly drawn) [Y-4, 13,14-dihydro-15-keto-16R,S-fluoro-11-dehydroxy-11R-methyl-PGF2α ethyl ester] was tested. Which activation at 100 µM (uterus; Table 2, Dose 1x10⁻⁴ M) did it give?
Answer: 50%

Question: How did the activation at 3 µM (uterus; Table 2, Dose 3x10⁻⁶ M) turn out when `CCCCCC(F)C(=O)CC[C@@H]1[C@@H](C/C=C\CCCC(=O)OC)[C@@H](O)C[C@H]1O` (stereo partly drawn) [Y-5, 13,14-dihydro-15-keto-16R,S-fluoro-20-methyl-PGF2α methyl ester] was run?
Answer: 42%

Question: How did the activation at 0.3 µM (uterus; Table 2) turn out when `CCCCCCC(F)C(=O)CC[C@@H]1[C@@H](C/C=C\CCCC(=O)O)[C@@H](O)C[C@H]1O` (stereo partly drawn) [Y-6, 13,14-dihydro-15-keto-20-ethyl-16R,S-fluoro-PGF2α] was run?
Answer: 92%

Question: For `CCCCCCC(F)C(=O)CC[C@@H]1[C@@H](C/C=C\CCCC(=O)OC)[C@@H](O)C[C@H]1O` (stereo partly drawn) [Y-7, 13,14-dihydro-15-keto-20-ethyl-16R,S-fluoro-PGF2α methyl ester], which activation at 10 µM (uterus; Table 2, Dose 1x10⁻⁵ M) is on record?
Answer: 85%

Question: For `CCCCCCC(F)C(=O)CC[C@@H]1[C@@H](C/C=C\CCCC(=O)OC)[C@@H](O)C[C@H]1C` (stereo partly drawn) [Y-8, 13,14-dihydro-15-keto-20-ethyl-16R,S-fluoro-11-dehydroxy-11R-methyl-PGF2α methyl ester], which activation at 100 µM (uterus; Table 2, Dose 1x10⁻⁴ M) is on record?
Answer: 50%

Question: For `COCCCCCC(=O)CC[C@@H]1[C@@H](C/C=C\CCCC(=O)OC)[C@@H](O)C[C@H]1O` [Y-9, 13,14-dihydro-15-keto-20-methoxy-PGF2α methyl ester], which activation at 100 µM (uterus; Table 2, Dose 1x10⁻⁴ M) is on record?
Answer: 50%

Question: For `COC(=O)CCC/C=C\C[C@@H]1[C@@H](CCC(=O)COc2cccc(C(F)(F)F)c2)[C@H](O)C[C@@H]1O` [Y-10, 13,14-dihydro-15-keto-16-desbutyl-16-m-trifluoromethylphenoxy-PGF2α methyl ester], which activation at 0.3 µM (uterus; Table 2) is on record?
Answer: 92%

Question: Which activation at 10 µM (uterus; Table 2, Dose 1x10⁻⁵ M) does the source give for `CCCCC(F)C(=O)/C=C/[C@@H]1[C@@H](C/C=C\CCCC(=O)OC)[C@@H](O)C[C@H]1O` (stereo partly drawn) [Y-11, 15-keto-16R,S-fluoro-PGF2α methyl ester] here?
Answer: 95%

Question: `O=C(O)CCC/C=C\C[C@@H]1[C@@H](CCC(=O)COc2cccc(C(F)(F)F)c2)[C@H](O)C[C@@H]1O` [Y-12, 13,14-dihydro-15-keto-16-desbutyl-16-m-trifluoromethylphenoxy-PGF2α] was tested. Which activation at 0.1 µM (uterus; Table 2, Dose 1x10⁻⁷ M) did it give?
Answer: 52%
